Test results as given in patent US5081148A, “Blocking agents of EDRF effect or formation for the treatment of shock” (Societe de Conseils de Recherches et d'Applications …, priority 1989, dated 1992).

Tests used:
[1] = test system: vascular reactivity (methoxamine); test: Vascular reactivity to methoxamine in pithed rats perfused with endotoxin (EDTX); type: in vivo, Male Sprague Dawley rats; settings: for inhibition of vascular hyporeactivity: pithed rats, endotoxin 300 μg/kg/h, 60 min
Procedure: Male Sprague Dawley rats (280-320 g) were pithed and perfused continuously with endotoxin (EDTX, Escherichia Coli lipopolysaccharide OIII: B4; 300 μg/kg/h) for 60 min.

EDRF = test: Restoration of depressed response to catecholamines / inhibition of vascular hyporeactivity (general statement)
[2] = Blood pressure in pithed rats perfused with endotoxin; type: in vivo, Male Sprague Dawley rats; settings: endotoxin 300 μg/kg/h, 60 min
Procedure: Male Sprague Dawley rats (280-320 g) were pithed and perfused continuously with endotoxin (EDTX, Escherichia Coli lipopolysaccharide OIII: B4; 300 μg/kg/h) for 60 min. […] A 60 min perfusion of endotoxin lipopolysaccharide (300 μg/kg/h) to pithed rats led to hypotension and impaired the vascular reactivity to pressor agents as observed in septic and endotoxinic shock in human. […] Their effects on blood pressure are however less marked. Association of blockers of cyclooxygenase (aspirin, indomethacin for instance . . . ) and blockers of EDRF results on a highly significative synergistic protective effect in both vascular hyperactivity and decrease of blood pressure induced by shock.

thoracic aorta rings = test: Contractile responses of thoracic aorta rings from endotoxin-treated rats (PE-induced contraction, loss of tonicity), organ bath; set-up: species or system Sprague Dawley rats; settings: rings from endotoxin-treated animals; compounds of the invention at 10, 30 or 100 μM, with or without endothelium
Procedure: Sprague Dawley rats (220-330 g) received a 10 mg/kg ip injection of Escherichia Coli endotoxin (0114B4 Sigma). After 3 hours, rats were sacrificed by cervical dislocation and the thoracic aorta removed and cleaned of the surrounding tissue. Rings 2 mm wide were suspended under a tension of 2 g at 37° C. in organ bath containing 10 ml of Krebs Henseleit physiological solution and gassed with 95% O2 /5% CO2. Contractile responses were measured using force displacement transducers (Auguet M., Delaflotte S., P. E. Chabrier, P. Braquet Comparative effects of endotelin and phorbol 12-13 dibutyrate in rat aorta. Life Sci. 45, 21, 2051-2059, 1989).
In some experiments, the endothelium was gently disrupted (-E). Phenylephrine (PE) induced contraction was stable over the time in control rings of animals receiving saline solution (0.9% NaCl) with (E+) or without (E-) endothelium. The arginine derivative (10, 30 or 100 μM) had no significant effect per se.
This phenomenon was accentuated with intact endothelium (E+).
In some experiments, the compounds of the invention were introduced in the bath 105 minutes after PE when the tissue had completely its tonicity. Under these conditions, the compounds of the invention, alone, were able to curatively and totally restore the contraction and therefore contribute extensively to vascular hyporesponsiveness to vasoconstrictor agents in shock. […]

SMILES	restoration of depressed response to catecholamines and inhibition of vascular hyporeactivity (EDRF)	effects on blood pressure [2]	inhibition of vascular hyporeactivity [1]	other results
COc1ccc(OC)c(C(O)C(C)N)c1 (stereo not drawn) [methoxamine, reference compound]				ED50 ([1]; Rattus norvegicus, control rats, cumulative dose-response): 0.079 ± 0.009 mg/kg
CNC(=N)NCCC[C@@H](N)C(=O)O [(D) N-methyl arginine, reference compound]				activity in the field of the present invention (EDRF): deprived of any activity
CNC(=N)NCCC[C@H](N)C(=O)O [L-NMMA, L-N-monomethyl arginine]	able to restore depressed response to catecholamines and to effectively inhibit vascular hyporeactivity	less marked	inhibited in a dose dependent manner	
N=C(N)NCCC[C@H](N)C(=O)O [L-arginine]				effect on loss of tonicity in endotoxin treated preparation (thoracic aorta rings): enhanced the loss of tonicity
COC(=O)[C@@H](N)CCCNC(=N)N[N+](=O)[O-] [L-NAME, L-nitroarginine methyl ester]	able to restore depressed response to catecholamines and to effectively inhibit vascular hyporeactivity	less marked	inhibited in a dose dependent manner	
CC(=N)NCCC[C@H](N)C(=O)O [L-NIO, L-iminoethylornithine]	able to restore depressed response to catecholamines and to effectively inhibit vascular hyporeactivity	less marked	inhibited in a dose dependent manner	
